This is an account of results in patent publication EP4011353A1 (Beiersdorf AG, priority 2020, dated 2022).

Molecules are shown by their SMILES.

Format in all cases: physicochemical
Data set [1] in a line: color stability of vitamin C in closed and open glass flasks after 3 months at room temperature (figure 2).
Data set [2] is described as follows: degradation of vitamin C at 40°C over 16 weeks, eutectic solvent compared to water (figure 1). The settings on record: 5 % vitamin C in eutectic solvent (5% vitamin C, 40% betaine, 55% glycerol) compared to water, 40 degrees.
The nature of data set [3]: degradation of ascorbic acid after addition of water or ethanol to the eutectic liquid. The following applies: addition of water or ethanol up to 15%, preferably up to 10%. An excerpt: This liquid, stable at room temperature, can be incorporated into cosmetic formulas.

Regarding `O=C1O[C@H]([C@@H](O)CO)C(O)=C1O` [vitamin C, ascorbic acid], the “stability of vitamin C” value in data set [1] (21% vitamin C in water, closed bottles) is reported as “unstable”; in data set [1] (21% vitamin C in water, opened glass bottles) it was “unstable”; in data set [1] (in betaine and glycerol (21% vitamin C, 29% betaine, 50% glycerin), closed bottles) it was “stable”. The “degradation of vitamin C” value in data set [2] is recorded as “enhanced protection”. For the same compound, in data set [3], the “degradation of the ascorbic acid” value is listed as “without increased degradation”.
